From PubChem BioAssay (NCI)
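Method: 48-hour compound exposure of cells in 96-well plates, five concentrations, linear interpolation of endpoints. TGI denotes the concentration required for complete inhibition of growth.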

Assays:
Test in all cases: NCI tumour cell line growth inhibition, 48 h
[1] = tested on: 786-0 renal
[2] = tested on: A498 renal
[3] = tested on: A549 NSCLC
[4] = tested on: ACHN renal
[5] = tested on: BT-549 breast
[6] = tested on: CAKI-1 renal
[7] = tested on: CCRF-CEM leukemia
[8] = tested on: COLO 205 colon
[9] = tested on: DU-145 prostate
[10] = tested on: EKVX NSCLC
[11] = tested on: HCC-2998 colon
[12] = tested on: HCT-116 colon
[13] = tested on: HCT-15 colon
[14] = tested on: HL-60(TB) leukemia
[15] = tested on: HOP-62 NSCLC
[16] = tested on: HOP-92 NSCLC
[17] = tested on: HS 578T breast
[18] = tested on: HT29 colon
[19] = tested on: IGROV1 ovarian
[20] = tested on: K-562 leukemia
[21] = tested on: LOX IMVI melanoma
[22] = tested on: M14 melanoma
[23] = tested on: MALME-3M melanoma
[24] = tested on: MCF7 breast
[25] = tested on: MDA-MB-231 breast
[26] = tested on: MDA-MB-435
[27] = tested on: MDA-N
[28] = tested on: MOLT-4 leukemia
[29] = tested on: NCI-H226 lung
[30] = tested on: NCI-H460 lung
[31] = tested on: NCI-H522 lung
[32] = tested on: NCI/ADR-RES ovarian
[33] = tested on: OVCAR-4 ovarian
[34] = tested on: OVCAR-5 ovarian
[35] = tested on: OVCAR-8 ovarian
[36] = tested on: PC-3 prostate
[37] = tested on: RPMI-8226 leukemia
[38] = tested on: RXF 393 renal
[39] = tested on: SF-268 CNS
[40] = tested on: SF-539 CNS
[41] = tested on: SK-MEL-2 melanoma
[42] = tested on: SK-MEL-28 melanoma
[43] = tested on: SK-MEL-5 melanoma
[44] = tested on: SK-OV-3 ovarian
[45] = tested on: SN12C renal
[46] = tested on: SNB-19 CNS
[47] = tested on: SNB-75 CNS
[48] = tested on: SR leukemia
[49] = tested on: SW-620 colon
[50] = tested on: T-47D breast
[51] = tested on: TK-10 renal
[52] = tested on: U251 CNS
[53] = tested on: UACC-257 melanoma
[54] = tested on: UACC-62 melanoma
[55] = tested on: UO-31 renal
[56] = tested on: KM12 colon
[57] = tested on: NCI-H23 lung
[58] = tested on: OVCAR-3 ovarian
[59] = tested on: SF-295 CNS

SMILES: CCC1CCN=C(NS(=O)(=O)c2cc(C)c(Cl)cc2S)N1 (stereo not given)
- TGI [1]: 97.9 µM
- TGI [2]: > 100 µM
- TGI [3]: > 100 µM
- TGI [4]: > 100 µM
- TGI [5]: 57.2 µM
- TGI [6]: > 100 µM
- TGI [7]: 88.1 µM
- TGI [8]: > 100 µM
- TGI [9]: > 100 µM
- TGI [10]: > 100 µM
- TGI [11]: > 100 µM
- TGI [12]: 94.6 µM
- TGI [13]: > 100 µM
- TGI [14]: 82.5 µM
- TGI [15]: > 100 µM
- TGI [16]: > 100 µM
- TGI [17]: 92 µM
- TGI [18]: 88.9 µM
- TGI [19]: > 100 µM
- TGI [20]: > 100 µM
- TGI [21]: 53.2 µM
- TGI [22]: > 100 µM
- TGI [23]: 92.9 µM
- TGI [24]: > 100 µM
- TGI [25]: > 100 µM
- TGI [26]: 64.2 µM
- TGI [27]: > 100 µM
- TGI [28]: 71.6 µM
- TGI [29]: 73.6 µM
- TGI [30]: > 100 µM
- TGI [31]: 76.9 µM
- TGI [32]: > 100 µM
- TGI [33]: > 100 µM
- TGI [34]: 49.9 µM
- TGI [35]: 44.6 µM
- TGI [36]: > 100 µM
- TGI [37]: 81.5 µM
- TGI [38]: > 100 µM
- TGI [39]: > 100 µM
- TGI [40]: > 100 µM
- TGI [41]: > 100 µM
- TGI [42]: > 100 µM
- TGI [43]: > 100 µM
- TGI [44]: > 100 µM
- TGI [45]: > 100 µM
- TGI [46]: > 100 µM
- TGI [47]: > 100 µM
- TGI [48]: > 100 µM
- TGI [49]: 90.3 µM
- TGI [50]: 98.5 µM
- TGI [51]: > 100 µM
- TGI [52]: 93 µM
- TGI [53]: > 100 µM
- TGI [54]: 54.3 µM
- TGI [55]: 82.4 µM

SMILES: Cc1c(Cl)nc(Cl)nc1Cl
- TGI [1]: 3.7 µM
- TGI [2]: 11.9 µM
- TGI [3]: 7.34 µM
- TGI [4]: 0.829 µM
- TGI [5]: 10.2 µM
- TGI [6]: 0.695 µM
- TGI [7]: 0.676 µM
- TGI [8]: 1.15 µM
- TGI [9]: 11.1 µM
- TGI [10]: 3.82 µM
- TGI [11]: 2.73 µM
- TGI [12]: 3.95 µM
- TGI [13]: 1.25 µM
- TGI [15]: 9.22 µM
- TGI [16]: 4.99 µM
- TGI [17]: 8.31 µM
- TGI [18]: 6.4 µM
- TGI [19]: 8.33 µM
- TGI [56]: 6.15 µM
- TGI [21]: 1.34 µM
- TGI [22]: 2.11 µM
- TGI [23]: 2.68 µM
- TGI [24]: 2.6 µM
- TGI [25]: 2.99 µM
- TGI [26]: 6.75 µM
- TGI [27]: 6.85 µM
- TGI [28]: 1.38 µM
- TGI [29]: 8.46 µM
- TGI [57]: 4.64 µM
- TGI [30]: 20.1 µM
- TGI [31]: 0.118 µM
- TGI [32]: 4.45 µM
- TGI [58]: 3.25 µM
- TGI [33]: 2.8 µM
- TGI [34]: 3.46 µM
- TGI [35]: 18.9 µM
- TGI [36]: 5.35 µM
- TGI [38]: 4.07 µM
- TGI [39]: 4.01 µM
- TGI [59]: 10.6 µM
- TGI [40]: 5.62 µM
- TGI [42]: 8.5 µM
- TGI [43]: 5.8 µM
- TGI [44]: 11.7 µM
- TGI [45]: 7.53 µM
- TGI [46]: 9.09 µM
- TGI [47]: 11.7 µM
- TGI [48]: 10.8 µM
- TGI [49]: 4.68 µM
- TGI [50]: 4.11 µM
- TGI [51]: 7.16 µM
- TGI [52]: 3.18 µM
- TGI [53]: 5.67 µM
- TGI [54]: 9.42 µM
- TGI [55]: 1.18 µM
